# Measured values reported in US6201006A, “Aromatic amidine derivatives useful as selective thrombin inhibitors” (C & C Research Laboratories, priority 1996, dated 2001).
# Where “and” joins values, the source holds several entries; their conditions need not be identical. Identical values can stand only once. Like-named read-outs stand apart in the source and are kept apart here.
# Tests used:
# human thrombin = biological target: T1, human thrombin (Homo sapiens, UniProt P00734); test: Inhibitory activity for thrombin (chromogenic substrate hydrolysis, 405 nm); format: biochemical
# T1 construct: purchased Sigma T-6759
# How it was run: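 Thrombin: human enzyme (5 units/ml stock, 0.1% BSA) acted for 20 min on N-benzoyl-Phe-Val-Arg-p-nitroanilide in 125 mM NaCl, 50 mM Tris-HCl pH 8.0, with compounds dissolved in 50% methanol. Hydrolysis was read at 405 nm. Selectivity index was trypsin IC50 divided by thrombin IC50.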
# [1] = system: thrombin time (TT) in rat plasma; test: Thrombin time (TT) in rat plasma after oral administration; format: in vivo, SD male rats; settings: TT after / TT before administration
# Experimental: SD male rats weighing 220±20 g which had fasted overnight were used as experimental animals. Blood taken from the hearts of the experimental animals just before administration of the test compound and at 30, 60, 120 and 240 minutes after oral administration of the test compound was mixed with 0.108M sodium citrate in the ratio of 9:1. The mixtures thereby obtained were centrifuged at 15,000 rpm for 5 minutes at 4° C. to separate the plasma, which was stored at -20° C. until the TT was measured by means of the method described below.
# 200 μl of Owren's buffer was added to 50 μl of the plasma and 100 μl of the diluted plasma thereby obtained was injected into the vial of a coagulometer and then incubated for 2 minutes at 37° C. To each vial was added 100 μl of thrombin at a concentration of 20 U/ml, which had prewarmed at 37° C., to measure the time (TT) until clotting occurred. The ratio of the TT in rat plasma after administration of the test compound to the TT in rat plasma before administration of the test compound was calculated.
# [2] = Pharmacokinetic test in rats (intravenous injection and oral administration); format: in vivo, S.D. male rats; settings: for bioavailability: oral vs intravenous
# Experimental: S.D. male rats weighing 200±20 g which had fasted overnight were subjected to cannulation at their femoral veins and arteries. Compound 88 prepared in Example 62 was dissolved in physiological saline and then administered to the rats both by intravenous injection and oral administration. Blood was taken at prescribed intervals of time and then immediately mixed with methanol. The mixture was centrifuged (15,000 rpm, 5 min., 4° C.) to obtain quantitative amount of the supernatant which was then subjected to HPLC in Diode Array Detector at 254 nm to analyse the concentration of the test compound in the blood.
smiles,measurement,setting,value
"CCn1c(CC[C@@H]2CCCN2C(=O)[C@H]2CCCN2CC(=O)O)cc2ccc(C(=N)N)cc21 [Compound 88, 2-[(R)-2-[[(S)-2-[2-(6-amidino-1-ethylindol-2-yl)ethyl]pyrrolidinyl]carbonyl]pyrrolidinyl]acetic acid]",Selectivity (trypsin/thrombin),human thrombin; IC50 for trypsin divided by IC50 for thrombin,8.1
same,IC50,"human thrombin; human thrombin, 20 min, pH 8.0, N-benzoyl-Phe-Val-Arg-p-nitroanilide",15.9 nM
same,Plasma TT ratio after administration to rat,[1]; 30 mg/kg oral,2.62
same,Plasma TT ratio after administration to rat,[1]; 50 mg/kg oral,7.83
same,"Blood concentration, individual rats (Rat-1 to Rat-5)","[2]; i.v. 10 mg/kg, 0.000 h",0.000 µg/mL
same,"Blood concentration, individual rats (Rat-1 to Rat-5)","[2]; i.v. 10 mg/kg, 0.033 h, 10 mg/kg, 1.98 min",11.186 µg/mL and 25.999 µg/mL and 23.841 µg/mL and 28.971 µg/mL and 18.505 µg/mL
same,"Blood concentration, individual rats (Rat-1 to Rat-5)","[2]; i.v. 10 mg/kg, 0.083 h, 10 mg/kg, 4.98 min",11.984 µg/mL and 10.776 µg/mL and 14.222 µg/mL and 11.623 µg/mL
same,"Blood concentration, individual rats (Rat-1 to Rat-5)","[2]; i.v. 10 mg/kg, 0.250 h, 10 mg/kg, 15 min",2.707 µg/mL and 4.629 µg/mL and 3.531 µg/mL and 5.982 µg/mL and 3.895 µg/mL
same,"Blood concentration, individual rats (Rat-1 to Rat-5)","[2]; i.v. 10 mg/kg, 0.500 h, 10 mg/kg, 30 min",0.816 µg/mL and 1.963 µg/mL and 1.685 µg/mL and 2.939 µg/mL and 1.516 µg/mL
same,"Blood concentration, individual rats (Rat-1 to Rat-5)","[2]; i.v. 10 mg/kg, 1.000 h, 10 mg/kg, 60 min",0.784 µg/mL and 0.773 µg/mL and 0.577 µg/mL and 1.204 µg/mL and 0.535 µg/mL
same,"Blood concentration, individual rats (Rat-1 to Rat-5)","[2]; i.v. 10 mg/kg, 2.000 h, 10 mg/kg",0.000 µg/mL
same,"Blood concentration, individual rats (Rat-1 to Rat-5)","[2]; i.v. 10 mg/kg, 2.000 h, 10 mg/kg, 120 min",0.204 µg/mL and 0.098 µg/mL and 0.424 µg/mL and 0.162 µg/mL
same,"Blood concentration, individual rats (Rat-1 to Rat-5)","[2]; i.v. 10 mg/kg, 4.000 h, 10 mg/kg",0.000 µg/mL
same,"Blood concentration, individual rats (Rat-1 to Rat-5)","[2]; i.v. 10 mg/kg, 4.000 h, 10 mg/kg, 240 min",0.121 µg/mL and 0.055 µg/mL
same,"Blood concentration, individual rats (Rat-1 to Rat-5)","[2]; i.v. 10 mg/kg, 6.000 h, 10 mg/kg",0.000 µg/mL
same,"Blood concentration, individual rats (Rat-1 to Rat-5)","[2]; i.v. 10 mg/kg, 6.000 h, 10 mg/kg, 360 min",0.051 µg/mL
same,"Blood concentration, individual rats (Rat-1 to Rat-5)","[2]; i.v. 10 mg/kg, 24.000 h",0.000 µg/mL
same,"Blood concentration, individual rats (Rat-1 to Rat-5)","[2]; oral 100 mg/kg, 0.000 h",0.000 µg/mL
same,"Blood concentration, individual rats (Rat-1 to Rat-5)","[2]; oral 100 mg/kg, 0.033 h, 100 mg/kg, 1.98 min",11.186 µg/mL and 25.999 µg/mL and 23.841 µg/mL and 28.971 µg/mL and 18.505 µg/mL
same,"Blood concentration, individual rats (Rat-1 to Rat-5)","[2]; oral 100 mg/kg, 0.083 h, 100 mg/kg, 4.98 min",11.984 µg/mL and 10.776 µg/mL and 14.222 µg/mL and 11.623 µg/mL
same,"Blood concentration, individual rats (Rat-1 to Rat-5)","[2]; oral 100 mg/kg, 0.250 h, 100 mg/kg, 15 min",2.707 µg/mL and 4.629 µg/mL and 3.531 µg/mL and 5.982 µg/mL and 3.895 µg/mL
same,"Blood concentration, individual rats (Rat-1 to Rat-5)","[2]; oral 100 mg/kg, 0.500 h, 100 mg/kg, 30 min",0.816 µg/mL and 1.963 µg/mL and 1.685 µg/mL and 2.939 µg/mL and 1.516 µg/mL
same,"Blood concentration, individual rats (Rat-1 to Rat-5)","[2]; oral 100 mg/kg, 1.000 h, 100 mg/kg, 60 min",0.784 µg/mL and 0.773 µg/mL and 0.577 µg/mL and 1.204 µg/mL and 0.535 µg/mL
same,"Blood concentration, individual rats (Rat-1 to Rat-5)","[2]; oral 100 mg/kg, 2.000 h, 100 mg/kg",0.000 µg/mL
same,"Blood concentration, individual rats (Rat-1 to Rat-5)","[2]; oral 100 mg/kg, 2.000 h, 100 mg/kg, 120 min",0.204 µg/mL and 0.098 µg/mL and 0.424 µg/mL and 0.162 µg/mL
same,"Blood concentration, individual rats (Rat-1 to Rat-5)","[2]; oral 100 mg/kg, 4.000 h, 100 mg/kg",0.000 µg/mL
same,"Blood concentration, individual rats (Rat-1 to Rat-5)","[2]; oral 100 mg/kg, 4.000 h, 100 mg/kg, 240 min",0.121 µg/mL and 0.055 µg/mL
same,"Blood concentration, individual rats (Rat-1 to Rat-5)","[2]; oral 100 mg/kg, 6.000 h, 100 mg/kg",0.000 µg/mL
same,"Blood concentration, individual rats (Rat-1 to Rat-5)","[2]; oral 100 mg/kg, 6.000 h, 100 mg/kg, 360 min",0.051 µg/mL
same,"Blood concentration, individual rats (Rat-1 to Rat-5)","[2]; oral 100 mg/kg, 24.000 h",0.000 µg/mL
same,concentration at 0.083 h,"[2]; rat, blood, iv, 10 mg/kg, i.v. 10 mg/kg, 0.083 h, read-out: Blood concentration, individual rats (Rat-1 to Rat-5)",8790 ng/mL
same,concentration at 6 h,"[2]; rat, blood, iv, 10 mg/kg, i.v. 10 mg/kg, 6.000 h, read-out: Blood concentration, individual rats (Rat-1 to Rat-5)",90 ng/mL
same,concentration at 0.033 h,"[2]; rat, blood, iv, 10 mg/kg, rats, i.v. 10 mg/kg, 0.033 h",21700 ng/mL
same,concentration at 0.083 h,"[2]; rat, blood, iv, 10 mg/kg, rats, i.v. 10 mg/kg, 0.083 h, read-out: Blood concentration, Mean",11500 ng/mL
same,concentration at 0.25 h,"[2]; rat, blood, iv, 10 mg/kg, rats, i.v. 10 mg/kg, 0.250 h",4150 ng/mL
same,concentration at 0.5 h,"[2]; rat, blood, iv, 10 mg/kg, rats, i.v. 10 mg/kg, 0.500 h",1780 ng/mL
same,concentration at 1 h,"[2]; rat, blood, iv, 10 mg/kg, rats, i.v. 10 mg/kg, 1.000 h",775 ng/mL
same,concentration at 2 h,"[2]; rat, blood, iv, 10 mg/kg, rats, i.v. 10 mg/kg, 2.000 h",178 ng/mL
same,concentration at 4 h,"[2]; rat, blood, iv, 10 mg/kg, rats, i.v. 10 mg/kg, 4.000 h",35 ng/mL
same,concentration at 6 h,"[2]; rat, blood, iv, 10 mg/kg, rats, i.v. 10 mg/kg, 6.000 h, read-out: Blood concentration, Mean",28 ng/mL
same,concentration at 0.083 h,"[2]; rat, blood, po, 100 mg/kg, oral 100 mg/kg, 0.083 h, read-out: Blood concentration, individual rats (Rat-1 to Rat-5)",8790 ng/mL
same,concentration at 6 h,"[2]; rat, blood, po, 100 mg/kg, oral 100 mg/kg, 6.000 h, read-out: Blood concentration, individual rats (Rat-1 to Rat-5)",90 ng/mL
same,concentration at 0.033 h,"[2]; rat, blood, po, 100 mg/kg, rats, oral 100 mg/kg, 0.033 h",21700 ng/mL
same,concentration at 0.083 h,"[2]; rat, blood, po, 100 mg/kg, rats, oral 100 mg/kg, 0.083 h, read-out: Blood concentration, Mean",11500 ng/mL
same,concentration at 0.25 h,"[2]; rat, blood, po, 100 mg/kg, rats, oral 100 mg/kg, 0.250 h",4150 ng/mL
same,concentration at 0.5 h,"[2]; rat, blood, po, 100 mg/kg, rats, oral 100 mg/kg, 0.500 h",1780 ng/mL
same,concentration at 1 h,"[2]; rat, blood, po, 100 mg/kg, rats, oral 100 mg/kg, 1.000 h",775 ng/mL
same,concentration at 2 h,"[2]; rat, blood, po, 100 mg/kg, rats, oral 100 mg/kg, 2.000 h",178 ng/mL
same,concentration at 4 h,"[2]; rat, blood, po, 100 mg/kg, rats, oral 100 mg/kg, 4.000 h",35 ng/mL
same,concentration at 6 h,"[2]; rat, blood, po, 100 mg/kg, rats, oral 100 mg/kg, 6.000 h, read-out: Blood concentration, Mean",28 ng/mL
same,bioavailability,"[2]; rat, blood, po, rats, read-out: Bioavailability",32.6%
same,half-life,"[2]; rat, blood, rats, mean ± error, read-out: Elimination Half-life (converted)",64.2 ± 16.2 min
same,half-life,"[2]; rat, blood, rats, read-out: elimination half-time",64 min
same,"Blood concentration, Mean","[2]; rats, i.v. 10 mg/kg, 0.000 h",0.000 µg/mL
same,"Blood concentration, Mean","[2]; rats, i.v. 10 mg/kg, 24.000 h",0.000 µg/mL
same,distribution and disappearance after intravenous injection,"[2]; rats, intravenous injection",rapidly distributed in the body and slowly disappeared
same,"Blood concentration, Mean","[2]; rats, oral 100 mg/kg, 0.000 h",0.000 µg/mL
same,"Blood concentration, Mean","[2]; rats, oral 100 mg/kg, 24.000 h",0.000 µg/mL
same,bioavailability,[2]; rats,32.62 ± 7.69%
